Experiments:
Assay in all cases: Tyrosine kinase inhibition assay
Assay type in all cases: biochemical
Settings in all cases: single concentration 1.0 μM, read-out: percent inhibition
BMX = biological target: T1, BMX (Homo sapiens, UniProt P51813)
T1 sequence (P51813 1-675): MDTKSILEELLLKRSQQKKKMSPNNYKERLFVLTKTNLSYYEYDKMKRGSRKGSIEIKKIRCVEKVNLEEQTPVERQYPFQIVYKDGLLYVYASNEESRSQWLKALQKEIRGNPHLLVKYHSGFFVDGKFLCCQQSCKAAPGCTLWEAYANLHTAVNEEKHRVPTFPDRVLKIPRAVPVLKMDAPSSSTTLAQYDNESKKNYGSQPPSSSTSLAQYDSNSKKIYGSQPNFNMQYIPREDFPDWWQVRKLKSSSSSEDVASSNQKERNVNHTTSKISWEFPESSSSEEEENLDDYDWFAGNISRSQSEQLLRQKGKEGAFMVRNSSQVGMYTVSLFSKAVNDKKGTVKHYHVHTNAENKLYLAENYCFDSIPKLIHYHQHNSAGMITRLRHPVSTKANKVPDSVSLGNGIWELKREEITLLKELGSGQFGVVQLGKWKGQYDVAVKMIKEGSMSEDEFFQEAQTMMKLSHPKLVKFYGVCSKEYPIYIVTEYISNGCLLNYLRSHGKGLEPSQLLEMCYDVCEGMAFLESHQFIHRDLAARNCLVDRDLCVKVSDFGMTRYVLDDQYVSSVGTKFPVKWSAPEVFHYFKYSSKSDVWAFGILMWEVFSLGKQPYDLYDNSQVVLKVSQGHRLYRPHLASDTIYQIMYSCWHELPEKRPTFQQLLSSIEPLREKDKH
Method in brief: (§1)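 Peptide/kinase mixtures and ATP (apparent Km) are combined in 50 mM HEPES pH 7.5 kinase buffer with 10 mM MgCl2, 1 mM EGTA and 0.01% BRIJ-35, compound at 1.0 μM in 1% DMSO. Development reagent is then added and percent inhibition calculated.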

PDGFRB (PDGFR beta) = PDGFRB (PDGFR beta) (Homo sapiens, UniProt P09619)
Method in brief: as §1

EPHB3 = biological target: T2, EPHB3 (Homo sapiens, UniProt P54753)
T2 sequence (P54753 34-998): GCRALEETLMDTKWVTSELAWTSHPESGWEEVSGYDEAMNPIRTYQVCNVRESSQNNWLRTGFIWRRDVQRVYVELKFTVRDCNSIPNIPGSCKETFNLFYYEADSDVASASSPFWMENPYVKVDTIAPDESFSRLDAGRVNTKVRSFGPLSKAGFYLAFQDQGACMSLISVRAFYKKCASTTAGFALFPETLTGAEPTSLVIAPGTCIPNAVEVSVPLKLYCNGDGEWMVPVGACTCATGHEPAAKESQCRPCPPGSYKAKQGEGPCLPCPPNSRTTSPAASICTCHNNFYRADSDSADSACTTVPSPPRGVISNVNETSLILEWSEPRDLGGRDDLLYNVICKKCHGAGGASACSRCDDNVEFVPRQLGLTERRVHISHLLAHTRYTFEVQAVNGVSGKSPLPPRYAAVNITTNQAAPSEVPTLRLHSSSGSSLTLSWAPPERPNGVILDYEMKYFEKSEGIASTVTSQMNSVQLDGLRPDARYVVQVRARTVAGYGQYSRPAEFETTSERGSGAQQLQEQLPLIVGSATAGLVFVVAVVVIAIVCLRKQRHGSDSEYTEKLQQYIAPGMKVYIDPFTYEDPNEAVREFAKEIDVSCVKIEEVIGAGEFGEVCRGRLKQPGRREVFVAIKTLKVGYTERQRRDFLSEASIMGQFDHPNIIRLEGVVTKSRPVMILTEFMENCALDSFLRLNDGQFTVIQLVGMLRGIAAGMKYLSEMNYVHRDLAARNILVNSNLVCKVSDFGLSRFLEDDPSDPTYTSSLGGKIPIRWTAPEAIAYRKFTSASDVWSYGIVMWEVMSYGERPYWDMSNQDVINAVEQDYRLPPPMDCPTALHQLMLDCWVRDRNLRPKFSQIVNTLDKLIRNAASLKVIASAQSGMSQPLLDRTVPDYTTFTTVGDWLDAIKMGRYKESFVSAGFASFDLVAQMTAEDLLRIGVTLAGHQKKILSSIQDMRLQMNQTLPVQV
Method in brief: as §1

PIK3CG (p110 gamma) = PIK3CG (p110 gamma) (Homo sapiens, UniProt P48736)
Method in brief: as §1

FGFR1 = FGFR1 (Homo sapiens, UniProt P11362)
Method in brief: as §1

JAK2 = JAK2 (Homo sapiens, UniProt O60674)
Method in brief: as §1

JAK2, sequence (O60674 whole entry): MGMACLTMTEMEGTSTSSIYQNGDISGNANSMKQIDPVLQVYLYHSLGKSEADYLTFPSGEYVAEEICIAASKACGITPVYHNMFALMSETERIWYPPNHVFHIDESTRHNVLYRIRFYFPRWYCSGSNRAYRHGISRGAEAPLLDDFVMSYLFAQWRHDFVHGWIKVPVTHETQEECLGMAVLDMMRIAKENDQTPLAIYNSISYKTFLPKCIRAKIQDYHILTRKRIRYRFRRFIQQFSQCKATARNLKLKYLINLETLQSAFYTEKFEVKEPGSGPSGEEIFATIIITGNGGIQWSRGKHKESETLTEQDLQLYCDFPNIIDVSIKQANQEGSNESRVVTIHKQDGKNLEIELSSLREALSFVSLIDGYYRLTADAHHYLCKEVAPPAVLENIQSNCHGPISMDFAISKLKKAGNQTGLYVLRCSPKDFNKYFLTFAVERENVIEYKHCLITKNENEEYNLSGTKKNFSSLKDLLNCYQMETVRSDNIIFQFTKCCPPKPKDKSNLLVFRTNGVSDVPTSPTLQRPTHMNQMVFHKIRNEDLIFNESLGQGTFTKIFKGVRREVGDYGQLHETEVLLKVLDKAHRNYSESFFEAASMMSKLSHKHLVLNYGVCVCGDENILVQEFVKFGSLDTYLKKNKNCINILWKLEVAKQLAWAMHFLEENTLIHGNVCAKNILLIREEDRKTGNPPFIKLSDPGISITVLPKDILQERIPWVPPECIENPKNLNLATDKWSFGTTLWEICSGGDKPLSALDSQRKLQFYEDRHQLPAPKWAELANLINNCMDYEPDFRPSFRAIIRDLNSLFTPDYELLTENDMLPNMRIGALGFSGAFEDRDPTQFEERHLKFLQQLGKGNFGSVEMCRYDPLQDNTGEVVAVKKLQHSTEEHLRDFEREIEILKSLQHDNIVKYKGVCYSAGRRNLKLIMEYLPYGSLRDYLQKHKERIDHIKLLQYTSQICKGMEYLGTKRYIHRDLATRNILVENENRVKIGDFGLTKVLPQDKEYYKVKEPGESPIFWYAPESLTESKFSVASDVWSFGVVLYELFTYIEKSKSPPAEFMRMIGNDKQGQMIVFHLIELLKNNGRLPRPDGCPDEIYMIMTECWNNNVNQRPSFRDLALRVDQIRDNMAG
FGFR1, sequence (P11362 22-822): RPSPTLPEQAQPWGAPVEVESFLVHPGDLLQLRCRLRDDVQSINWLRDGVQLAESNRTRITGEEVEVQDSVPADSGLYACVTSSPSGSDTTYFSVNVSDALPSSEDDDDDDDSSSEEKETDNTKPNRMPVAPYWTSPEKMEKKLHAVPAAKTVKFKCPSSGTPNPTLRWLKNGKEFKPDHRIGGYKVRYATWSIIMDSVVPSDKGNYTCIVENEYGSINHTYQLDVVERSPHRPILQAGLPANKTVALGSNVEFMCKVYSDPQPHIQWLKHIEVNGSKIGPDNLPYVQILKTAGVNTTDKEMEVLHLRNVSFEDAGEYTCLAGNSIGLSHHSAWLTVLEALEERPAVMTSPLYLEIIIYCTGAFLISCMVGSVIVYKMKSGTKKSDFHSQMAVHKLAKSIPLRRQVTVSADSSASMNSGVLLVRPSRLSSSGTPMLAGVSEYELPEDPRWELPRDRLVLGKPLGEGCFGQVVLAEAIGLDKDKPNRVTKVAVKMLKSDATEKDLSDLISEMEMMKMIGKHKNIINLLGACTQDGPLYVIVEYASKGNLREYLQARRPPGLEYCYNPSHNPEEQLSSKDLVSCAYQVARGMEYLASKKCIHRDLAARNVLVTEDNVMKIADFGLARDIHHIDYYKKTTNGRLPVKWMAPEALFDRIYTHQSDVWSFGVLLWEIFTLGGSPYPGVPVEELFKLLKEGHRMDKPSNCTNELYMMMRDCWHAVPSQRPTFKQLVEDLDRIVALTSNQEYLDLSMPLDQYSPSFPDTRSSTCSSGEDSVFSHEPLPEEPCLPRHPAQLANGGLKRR
PIK3CG (p110 gamma), sequence (P48736 whole entry): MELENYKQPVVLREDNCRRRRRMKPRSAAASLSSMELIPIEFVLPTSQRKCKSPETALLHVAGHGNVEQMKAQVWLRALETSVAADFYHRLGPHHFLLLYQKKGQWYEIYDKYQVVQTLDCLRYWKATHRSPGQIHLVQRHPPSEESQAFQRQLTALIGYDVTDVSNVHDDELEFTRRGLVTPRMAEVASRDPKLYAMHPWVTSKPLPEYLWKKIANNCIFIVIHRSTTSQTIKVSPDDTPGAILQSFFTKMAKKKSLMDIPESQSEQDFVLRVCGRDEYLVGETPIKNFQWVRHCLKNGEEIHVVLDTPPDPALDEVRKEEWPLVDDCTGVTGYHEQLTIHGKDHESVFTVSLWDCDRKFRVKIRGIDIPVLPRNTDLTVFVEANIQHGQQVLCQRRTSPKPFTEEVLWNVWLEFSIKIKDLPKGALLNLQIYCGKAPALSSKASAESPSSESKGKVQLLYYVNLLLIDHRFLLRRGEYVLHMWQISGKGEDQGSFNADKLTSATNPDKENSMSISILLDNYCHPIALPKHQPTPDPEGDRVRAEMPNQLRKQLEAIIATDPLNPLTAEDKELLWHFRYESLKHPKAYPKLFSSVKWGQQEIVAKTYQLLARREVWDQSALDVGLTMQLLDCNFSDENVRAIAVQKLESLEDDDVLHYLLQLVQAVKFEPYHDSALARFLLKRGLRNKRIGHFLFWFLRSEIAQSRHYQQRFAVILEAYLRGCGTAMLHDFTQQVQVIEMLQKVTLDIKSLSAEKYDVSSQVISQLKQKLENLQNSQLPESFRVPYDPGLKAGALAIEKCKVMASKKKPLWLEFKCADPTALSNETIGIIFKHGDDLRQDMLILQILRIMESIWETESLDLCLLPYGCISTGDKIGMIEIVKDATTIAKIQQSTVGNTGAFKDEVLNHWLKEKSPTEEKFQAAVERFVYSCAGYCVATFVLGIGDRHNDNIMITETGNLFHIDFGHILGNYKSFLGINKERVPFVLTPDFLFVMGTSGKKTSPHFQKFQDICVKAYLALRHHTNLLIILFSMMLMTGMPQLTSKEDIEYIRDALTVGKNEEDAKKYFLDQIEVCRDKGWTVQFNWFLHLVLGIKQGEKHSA
PDGFRB (PDGFR beta), sequence (P09619 33-1106): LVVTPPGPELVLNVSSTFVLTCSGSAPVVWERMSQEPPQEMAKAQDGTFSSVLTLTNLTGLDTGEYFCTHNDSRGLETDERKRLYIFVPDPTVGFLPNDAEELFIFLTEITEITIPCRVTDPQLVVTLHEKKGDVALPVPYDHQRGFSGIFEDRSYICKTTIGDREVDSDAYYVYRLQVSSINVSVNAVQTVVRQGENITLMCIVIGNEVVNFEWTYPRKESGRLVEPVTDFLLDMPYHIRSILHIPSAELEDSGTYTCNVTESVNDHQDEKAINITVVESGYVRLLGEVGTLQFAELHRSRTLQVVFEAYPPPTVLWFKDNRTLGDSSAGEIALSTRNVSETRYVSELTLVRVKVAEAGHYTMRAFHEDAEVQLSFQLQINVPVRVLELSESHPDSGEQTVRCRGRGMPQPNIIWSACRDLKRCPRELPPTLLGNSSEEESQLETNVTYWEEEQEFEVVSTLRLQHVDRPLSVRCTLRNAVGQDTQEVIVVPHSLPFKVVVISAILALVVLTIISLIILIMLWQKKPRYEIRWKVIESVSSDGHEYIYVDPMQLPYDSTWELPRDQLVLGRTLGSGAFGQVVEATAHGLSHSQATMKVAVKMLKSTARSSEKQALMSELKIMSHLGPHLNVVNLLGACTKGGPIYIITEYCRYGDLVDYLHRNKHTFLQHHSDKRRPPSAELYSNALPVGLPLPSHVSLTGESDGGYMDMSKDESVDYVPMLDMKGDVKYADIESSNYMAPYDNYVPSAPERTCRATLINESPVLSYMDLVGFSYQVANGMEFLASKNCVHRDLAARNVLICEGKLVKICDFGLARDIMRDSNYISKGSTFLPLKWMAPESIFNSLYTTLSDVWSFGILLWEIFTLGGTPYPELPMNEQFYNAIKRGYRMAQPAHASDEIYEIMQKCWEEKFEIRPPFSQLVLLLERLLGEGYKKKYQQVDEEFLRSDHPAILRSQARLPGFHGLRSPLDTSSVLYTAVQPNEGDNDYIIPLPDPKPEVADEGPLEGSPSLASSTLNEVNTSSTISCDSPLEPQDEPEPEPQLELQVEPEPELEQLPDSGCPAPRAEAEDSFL

SMILES	inhibition at 1 µM (BMX) [%]	inhibition at 1 µM (PDGFRB (PDGFR beta)) [%]	inhibition at 1 µM (EPHB3) [%]	inhibition at 1 µM (PIK3CG (p110 gamma)) [%]	inhibition at 1 µM (FGFR1) [%]	inhibition at 1 µM (JAK2) [%]
COc1cc2nccc(Oc3ccc(NC(=O)C4(C(=O)Nc5ccc(F)cc5)CC4)cc3)c2cc1OC [Cabozantinib, reference compound]	36	73	54	14	12	24
COc1cc2nccc(Oc3ccc(NC(=O)C4(NC(=O)c5ccc(F)cc5)CC4)cc3F)c2cc1OC [Cbo-02, N-(1-((4-((6,7-diMethoxyquinolin-4-yl)oxy)-3-fluorophenyl)carbamoyl)cyclopropyl)-4-fluorobenzamide]	22	34	4	4	3	6
COc1cc2nccc(Oc3ccc(NC(=O)C4(NC(=O)c5ccc(F)cc5)CC4)cc3F)c2cc1Oc1ccc(N)cc1F [Cbo-10]	33	52	6	9	1	-1
COc1cc2nccc(Oc3ccc(NC(=O)C4(NC(=O)c5ccc(F)cc5)CC4)cc3F)c2cc1Oc1c(F)cc(N)cc1F [Cbo-14]	42	56	6	6	5	1
COc1cc2nccc(Oc3ccc(NC(=O)C4(C(=O)Nc5ccc(F)cc5)CC4)cc3F)c2cc1Oc1ccc(N)cc1F [Cbo-23]	42	56	55	-7	27	58

— US20250120967A1, “TYROSINE KINASES INHIBITORS AND USES THEREOF” (GREAT NOVEL THERAPEUTICS BIOTECH & MEDICALS CORPORATION, priority 2023, published 2025)
